The values that follow come from ChEMBL document CHEMBL1770077, “Synthesis, modelling and kinetic assays of potent inhibitors of purple acid phosphatase” (Bioorg Med Chem Lett, 2011).

Assay [1] can be described thus: Competitive inhibition of pig PAP using para-nitrophenol as substrate at pH 4.9 preincubated for 10 mins by UV-visible spectrophotometry. Details: species or system Sus scrofa.
Assay [2] in a line: Uncompetitive inhibition of pig PAP using para-nitrophenol as substrate at pH 4.9 preincubated for 10 mins by UV-visible spectrophotometry. Further details: species or system Sus scrofa.
Assay [3] deals with T1, Fe(3+)-Zn(2+) purple acid phosphatase (Phaseolus vulgaris, UniProt P80366).
T1 sequence (P80366 whole entry): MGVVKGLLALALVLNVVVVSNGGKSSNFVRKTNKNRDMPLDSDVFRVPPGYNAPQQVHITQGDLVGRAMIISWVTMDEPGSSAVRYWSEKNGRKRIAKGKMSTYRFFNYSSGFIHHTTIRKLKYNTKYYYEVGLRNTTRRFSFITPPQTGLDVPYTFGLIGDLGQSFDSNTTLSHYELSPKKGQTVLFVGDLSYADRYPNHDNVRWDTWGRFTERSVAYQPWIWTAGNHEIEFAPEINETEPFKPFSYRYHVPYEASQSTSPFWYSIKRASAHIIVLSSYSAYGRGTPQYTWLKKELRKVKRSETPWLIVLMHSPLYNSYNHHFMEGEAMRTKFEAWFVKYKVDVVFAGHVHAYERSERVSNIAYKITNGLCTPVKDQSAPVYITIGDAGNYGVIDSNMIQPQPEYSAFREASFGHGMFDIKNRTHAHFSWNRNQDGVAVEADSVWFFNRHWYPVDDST
The assay can be described thus: Competitive inhibition of red kidney bean PAP using para-nitrophenol as substrate at pH 4.9 preincubated for 10 mins by UV-visible spectrophotometry.

In assay [4] the target is T1, Fe(3+)-Zn(2+) purple acid phosphatase. The assay can be described thus: Uncompetitive inhibition of red kidney bean PAP using para-nitrophenol as substrate at pH 4.9 preincubated for 10 mins by UV-visible spectrophotometry.

Usually Ki stands for the dissociation constant of the complex between target and ligand, obtained from inhibition or displacement. The low end stands for a stronger hold on the target, the high end for a looser hold on the target.

For `CCCC(=O)NC(c1cccc2ccccc12)P(=O)(O)O` (racemic), the Ki in assay [1] was 363 µM; in assay [2] it was 1440 µM; in assay [3], 238 µM; in assay [4], 654 µM.

Take `CCCCCCC(=O)NC(c1cccc2ccccc12)P(=O)(O)O` (racemic): the inhibition constant Ki in assay [1] worked out at 116 µM; in assay [2], 349 µM; in assay [3] it was 222 µM; in assay [4], 446 µM.

On to `CCCCCCCC(=O)NC(c1cccc2ccccc12)P(=O)(O)O` (racemic), for which the inhibitory constant (Ki) in assay [1] is 44 µM; in assay [3], 195 µM; in assay [4], 443 µM.

For the compound `CCCCCCCCCC(=O)NC(c1cccc2ccccc12)P(=O)(O)O` (racemic), the inhibitory constant (Ki) in assay [1] is 10 µM; in assay [3] it was 57 µM; in assay [4] it was 102 µM.

As to `CCCCCCCCCCCC(=O)NC(c1cccc2ccccc12)P(=O)(O)O` (racemic), the inhibition constant Ki turned out to be 21 µM in assay [1] and 5 µM in assay [3].

With `CCCCCCCCCCCCCC(=O)NC(c1cccc2ccccc12)P(=O)(O)O` (racemic), the figures for the Ki in assay [1] and in assay [3] were 8 µM and 11 µM, respectively.

For the compound `CCCCCCCCCCCCCCCC(=O)NC(c1cccc2ccccc12)P(=O)(O)O` (racemic), the Ki in assay [1] came to 13 µM; in assay [3], 31 µM.
